From PMC6225228, “Design, Synthesis and Evaluation of N-pyrazinylbenzamides as Potential Antimycobacterial Agents” (Molecules : A Journal of Synthetic Chemistry and Natural …, 2018)
Values after ≈ are worked out from the molar mass of the structure shown. Like-named read-outs stand apart in the source and are kept apart here.

How the values were obtained:
[1] = test system: Aspergillus fumigatus 231; assay: Antifungal microdilution broth, AF; format: cell-based; conditions: read-out: MIC AF
[2] = test system: Enterococcus sp. J 14365/08; assay: Antibacterial microdilution broth, EF; format: cell-based; conditions: Enterococcus, read-out: MIC EF
Trichosporon asahii 1188 = assay: Antifungal microdilution broth, TA; format: cell-based; conditions: read-out: MIC TA
[3] = test system: Escherichia coli CCM 4517; assay: Antibacterial microdilution broth, EC; format: cell-based; conditions: Escherichia coli, read-out: MIC EC
Candida tropicalis 156 = assay: Antifungal microdilution broth, CT; format: cell-based; conditions: read-out: MIC CT
[4] = test system: Pseudomonas aeruginosa CCM 1961; assay: Antibacterial microdilution broth, PA; format: cell-based; conditions: Pseudomonas aeruginosa, read-out: MIC PA
[5] = test system: M. avium ssp. avium CNCTC My 80/72 (ATCC 15769); assay: Antimycobacterial microdilution MABA, M. avium; format: cell-based, Mycobacterium avium; conditions: for MIC: Mycobacterium avium, ATCC15769, pH 6.6, read-out: M. avium ATCC 15769 MIC
[6] = test system: Staphylococcus aureus H 5996/08 methicillin resistant; assay: microbe, parasite or virus in culture; format: cell-based; conditions: Staphylococcus aureus, MRSA, read-out: MIC MRSA
[7] = test system: Candida albicans ATCC 44859; assay: Antifungal microdilution broth, CA; format: cell-based; conditions: Candida albicans, read-out: MIC CA
[8] = test system: Staphylococcus epidermidis H 6966/08; assay: Antibacterial microdilution broth, SE; format: cell-based; conditions: Staphylococcus epidermidis, read-out: MIC SE
[9] = test system: Lichtheimia corymbifera 272; assay: Antifungal microdilution broth, LC; format: cell-based; conditions: read-out: MIC LC
[10] = test system: Mycobacterium smegmatis CCM 4622 (ATCC 607); assay: Antimycobacterial microdilution, M. smegmatis; format: cell-based; conditions: Mycolicibacterium smegmatis, read-out: M. smeg. ATCC 607 MIC
Candida krusei E28 = assay: Antifungal microdilution broth, CK; format: cell-based; conditions: Pichia kudriavzevii, read-out: MIC CK
[11] = test system: M. kansasii CNCTC My 235/80 (ATCC 12478); assay: Antimycobacterial microdilution MABA, M. kansasii; format: cell-based, Mycobacterium kansasii; conditions: for MIC: Mycobacterium kansasii, ATCC12478, pH 6.6, read-out: M. kans. ATCC 12478 MIC, Middlebrook 7H9 with OADC, pH 6.6, MABA
Candida glabrata 20/I = assay: Antifungal microdilution broth, CG; format: cell-based; conditions: Nakaseomyces glabratus, 20/I, read-out: MIC CG
[12] = test system: Trichophyton interdigitale 445; assay: Antifungal microdilution broth, TI; format: cell-based; conditions: read-out: MIC TI
[13] = test system: Staphylococcus aureus CCM 4516/08; assay: Antibacterial microdilution broth, SA; format: cell-based; conditions: Staphylococcus aureus
[14] = test system: Mycobacterium tuberculosis H37Rv CNCTC My 331/88 (ATCC 27294); assay: Antimycobacterial microdilution MABA, M. tuberculosis; format: cell-based; conditions: for MIC: Mycobacterium tuberculosis, read-out: Mtb H37Rv ATCC 27294 MIC, Middlebrook 7H9 with OADC growth supplement, pH = 6.6, MABA; for Mtb H37Rv ATCC 27294 MIC: Middlebrook 7H9 with OADC growth supplement, pH = 6.6, MABA
[15] = Aspergillus fumigatus, 231, 24 h
[16] = Aspergillus fumigatus, 231, 48 h
[17] = Trichosporon asahii, 1188, 24 h
[18] = Trichosporon asahii, 1188, 48 h
[19] = Lichtheimia corymbifera, 272, 24 h
[20] = Lichtheimia corymbifera, 272, 48 h
[21] = Trichophyton interdigitale, 445, 72 h
[22] = Trichophyton interdigitale, 445, 120 h
[23] = CCM4516, 24 h, read-out: MIC SA, 24 h
[24] = CCM4516, 48 h, read-out: MIC SA, 48 h
[25] = CCM4516, read-out: MIC against S. aureus, time not stated
[26] = Middlebrook 7H9 with OADC, pH 6.6, MABA

Structure (SMILES)	MIC [1, 15]	MIC [1, 16]	MIC ([2]; SP.J14365/08, 24 h)	MIC ([2]; SP.J14365/08, 48 h)	MIC (Trichosporon asahii 1188; [17])	MIC (Trichosporon asahii 1188; [18])	MIC ([3]; CCM4517, 24 h)	MIC ([3]; CCM4517, 48 h)	MIC (Candida tropicalis 156; Candida tropicalis, 156, 24 h)	MIC (Candida tropicalis 156; Candida tropicalis, 156, 48 h)	MIC ([4]; CCM1961, 72 h)	MIC ([4]; CCM1961, 120 h)	MIC [5]	melting point	MIC ([6]; 24 h)	MIC ([6]; 48 h)	MIC ([7]; ATCC44859, 24 h)	MIC ([7]; ATCC44859, 48 h)	MIC ([8]; H6966/08, 24 h)	MIC ([8]; H6966/08, 48 h)	also measured
O=C(Nc1cnc(Cl)cn1)c1ccc(Cl)cc1 [Compound 2l]	> 125 µM	> 125 µM	> 125 µM	> 125 µM	> 125 µM	> 125 µM	> 125 µM	> 125 µM	> 125 µM	> 125 µM	> 125 µM	> 125 µM	> 100 µg/mL	225 to 226.3 °C	> 125 µM	> 125 µM	> 125 µM	> 125 µM	> 125 µM	> 125 µM	MIC [9, 19]: > 125 µM; MIC [9, 20]: > 125 µM; MIC [10]: ≥ 500 µg/mL; MIC (Candida krusei E28; E28, 24 h): > 125 µM; MIC (Candida krusei E28; E28, 48 h): > 125 µM; MIC [11]: > 100 µg/mL; MIC (Candida glabrata 20/I; 24 h): > 125 µM; MIC (Candida glabrata 20/I; 48 h): > 125 µM; MIC [12, 21]: > 125 µM; MIC [12, 22]: > 125 µM; MIC [13, 23]: > 125 µM; MIC [13, 24]: > 125 µM; MIC [13, 25]: > 125 µM; MIC [14]: > 100 µg/mL
CC(=O)Oc1cccc(C(=O)Nc2cnccn2)c1 [Compound 1c-Ac]	> 500 µM	> 500 µM	> 500 µM	> 500 µM	> 500 µM	> 500 µM	> 500 µM	> 500 µM	> 500 µM	> 500 µM	> 500 µM	> 500 µM	> 100 µg/mL	168.4 to 169.5 °C	> 500 µM	> 500 µM	> 500 µM	> 500 µM	> 500 µM	> 500 µM	MIC [9, 19]: > 500 µM; MIC [9, 20]: > 500 µM; MIC [10]: ≥ 500 µg/mL; MIC (Candida krusei E28; E28, 24 h): > 500 µM; MIC (Candida krusei E28; E28, 48 h): > 500 µM; MIC [11]: > 100 µg/mL; MIC (Candida glabrata 20/I; 24 h): > 500 µM; MIC (Candida glabrata 20/I; 48 h): > 500 µM; MIC [12, 21]: > 500 µM; MIC [12, 22]: > 500 µM; MIC [13, 23]: > 500 µM; MIC [13, 24]: > 500 µM; MIC [14]: > 100 µg/mL
O=C(Nc1cnccn1)c1ccccc1Cl [Compound 1j]	> 500 µM	> 500 µM	> 500 µM	> 500 µM	> 500 µM	> 500 µM	> 500 µM	> 500 µM	> 500 µM	> 500 µM	250 µM (≈ 58.4 µg/mL)	250 µM (≈ 58.4 µg/mL)	> 100 µg/mL	128.2 to 129.7 °C	> 500 µM	> 500 µM	> 500 µM	> 500 µM	500 µM (≈ 117 µg/mL)	500 µM (≈ 117 µg/mL)	M. avium ATCC 15769 MIC [5, 26]: >100 µg/mL; MIC [9, 19]: > 500 µM; MIC [9, 20]: > 500 µM; MIC [10]: 250 µg/mL (≈ 1070 µM); MIC (Candida krusei E28; E28, 24 h): > 500 µM; MIC (Candida krusei E28; E28, 48 h): > 500 µM; M. kans. ATCC 12478 MIC [11, 26]: >100 µg/mL; MIC [11]: > 100 µg/mL; MIC (Candida glabrata 20/I; 24 h): > 500 µM; MIC (Candida glabrata 20/I; 48 h): > 500 µM; MIC [12, 21]: > 500 µM; MIC [12, 22]: > 500 µM; MIC [13, 23]: 250 µM (≈ 58.4 µg/mL); MIC [13, 24]: 250 µM (≈ 58.4 µg/mL); Mtb H37Rv ATCC 27294 MIC [14]: >100 µg/mL; MIC [14]: > 100 µg/mL
CC(=O)Oc1ccc(C(=O)Nc2cnccn2)cc1 [Compound 1d-Ac]	> 500 µM	> 500 µM	> 500 µM	> 500 µM	> 500 µM	> 500 µM	> 500 µM	> 500 µM	> 500 µM	> 500 µM	> 500 µM	> 500 µM	> 100 µg/mL	147.4 to 149.4 °C	> 500 µM	> 500 µM	> 500 µM	> 500 µM	> 500 µM	> 500 µM	MIC [9, 19]: > 500 µM; MIC [9, 20]: > 500 µM; MIC [10]: ≥ 500 µg/mL; MIC (Candida krusei E28; E28, 24 h): > 500 µM; MIC (Candida krusei E28; E28, 48 h): > 500 µM; MIC [11]: > 100 µg/mL; MIC (Candida glabrata 20/I; 24 h): > 500 µM; MIC (Candida glabrata 20/I; 48 h): > 500 µM; MIC [12, 21]: > 500 µM; MIC [12, 22]: > 500 µM; MIC [13, 23]: > 500 µM; MIC [13, 24]: > 500 µM; MIC [14]: > 100 µg/mL
O=C(Nc1cnc(Cl)cn1)c1cccc(Cl)c1 [Compound 2k]	> 125 µM	> 125 µM	> 125 µM	> 125 µM	> 125 µM	> 125 µM	> 125 µM	> 125 µM	> 125 µM	> 125 µM	> 125 µM	> 125 µM	> 100 µg/mL	150.7 to 151.9 °C	> 125 µM	> 125 µM	> 125 µM	> 125 µM	> 125 µM	> 125 µM	MIC [9, 19]: > 125 µM; MIC [9, 20]: > 125 µM; MIC [10]: ≥ 500 µg/mL; MIC (Candida krusei E28; E28, 24 h): > 125 µM; MIC (Candida krusei E28; E28, 48 h): > 125 µM; MIC [11]: > 100 µg/mL; MIC (Candida glabrata 20/I; 24 h): > 125 µM; MIC (Candida glabrata 20/I; 48 h): > 125 µM; MIC [12, 21]: > 125 µM; MIC [12, 22]: > 125 µM; MIC [13, 23]: > 125 µM; MIC [13, 24]: > 125 µM; MIC [13, 25]: > 125 µM; Mtb H37Rv ATCC 27294 MIC [14]: >100 µg/mL; MIC [14]: > 100 µg/mL
